Where a name gives a salt, the structure may show the parent alone.
Assays:
[1] = test system: rat rheumatoid arthritis model; assay: Rat rheumatoid arthritis CIA model, overall drug efficacy; type: in vivo; details: Wistar CIA rats; anlotinib 10 mg/kg oral gavage once daily for 14 days
Method: (§1) 15 SPF healthy male rats from Wistar with the weight of 160-180 g and purchased from Shanghai Institute of Planned Parenthood Research, with Certificate No. 20180006022473 in an SPF feeding environment.
15 rats were randomly divided into two groups according to the weight, blank control group (n=3) and modeling group (n=12).
(§2) Modeling group: on day 1 of the experiment, the primary immunization was performed. The animals in the modeling group were anesthetized with isoflurane. Four points were taken to inject the modeling agent on both sides of the spinal cord skin at the base of the tail of the rats. A total of 0.2 mL of CII/CFA molding emulsion was injected intradermally. On day 8 of the experiment, the second immunization was performed, and the operations were the same as those on day 1 of the experiment. Blank control group: equal volume of normal saline was injected.
The animals in the modeling group were divided into 3 groups according to the joint swelling degree and the joint scores: group-2 (n=4, model group), group-3 (n=4, positive control group), and group-4 (n=4, test drug group).
After grouping, oral gavage administration was started according to the grouping requirements, and the administration volume was 10 mL/kg. The administration was carried out once daily for 14 days (from day 1 to day 14). […]

CIA rats [2] = assay: CIA model rats, determination of the rat paw swelling degree; type: in vivo; details: SD CIA rats; right hind paw thickness; 20 and 10 mg/kg
Method: (§3) After adaptive feeding of 80 SPF male SD rats with the weight of 140±10 g for 5 days, 10 male SD rats were randomly selected as a normal control group, and the rest were subjected to collagen-induced arthritis model modeling. The specific methods are as follows.
(§4) A solution of the bovine type II collagen (CII) in acetic acid (containing 2.0 mg·mL^−1 bovine CII) and an equal volume of complete Freund's adjuvant (CFA) were completely mixed, and the mixture was fully emulsified. The emulsion was added dropwise to water without diffusing as the degree, and finally the emulsion containing 1.0 mg·mL^−1 bovine CII was prepared. 0.2 mL of the emulsion was taken and injected intradermally into the dorsal and the base of the tail at four points (two points on the dorsal and two points on the base of the tail) for the primary immunization (d0). After day 7 (d7) of primary immunization, the emulsion was injected again as described above to boost the immunization. Then the arthritis index (AI) was scored on day 14 (d14). […]
Determination of the rat paw swelling degree: before the primary immunization (d0), every 7 d (d7, d14) after the primary immunization and every 4 d after treatment, the thickness of the right hind paw of the rats was measured with a vernier caliper at the same position. […]

[3] = test system: rheumatoid arthritis CIA model rats; assay: Rheumatoid arthritis CIA model, hind limb joint lesion scoring; type: in vivo; details: Wistar CIA rats, anlotinib 10 mg/kg, dexamethasone 0.1 mg/kg oral gavage once daily, FIG. 4
Method: as §1, §2
After modeling was completed, the animals were normally observed and housed. After the hind limb joints of the animals were diseased, the animals were grouped according to the joint swelling degree and the joint score, wherein the scoring criteria were as follows: • clinical diagnostic scoring criteria for joint soft tissue swelling and joint mobility:
(§5) After grouping, oral gavage administration was started according to the grouping requirements, and the administration volume was 10 mL/kg. The administration was carried out once daily for 14 days (from day 1 to day 14). On day 15, the animals were dissected after collection of relevant experimental data.
During the experiment, hind limb ankle joints of the rats in each group were scored for joint soft tissue swelling and joint mobility on day 1, day 4, day 8, day 11 and day 15.

[4] = test system: human rheumatoid arthritis synovial cells; assay: MTT assay for the inhibition of human rheumatoid arthritis synovial cells; type: cell-based
Method: An MTT assay for the inhibition of human rheumatoid arthritis synovial cells using the dihydrochloride salt of the compound of formula I as the test drug: the trypsinized cell suspension was seeded in a 96-well plate at a volume of 100 μL per well, with 1×10^4 cells per well. The edges of the plate were wiped with sterile PBS. The plate was placed in a cell incubator and incubated at 37° C. with 5% CO2. After 24 h of incubation, the original culture solution in the wells was aspirated. Then 100 μL of culture solution with gradient concentration of drug was added to each well, and 6 concentrations were set, namely, 0 μM, 0.5 μM, 1 μM, 2 μM, 5 μM and 10 μM, respectively. The plate was placed in the incubator and incubated at 37° C. with 5% CO2. After 24 h and 48 h after dosing, 20 μL of MTS was added to each well. The plate was incubated at 37° C. for 1.5 h. The absorbance of each well at a wavelength of 540 nm was measured by a microplate reader, and the inhibition rate of cells in each group was calculated.
The calculation formula is as follows: cell inhibition rate/%=(1−[…])×100%

[5] = Rheumatoid arthritis CIA model, weight monitoring; type: in vivo; details: Wistar CIA rats, oral gavage once daily 14 days, dexamethasone 0.1 mg/kg, FIG. 1; for weight of the rats, regain after treatment: anlotinib 10 mg/kg
Method: as §1, §2, §5
During the experiment, the weight of the rats in each group was measured once daily from the day of grouping and administration (day 1) to day 15.

[6] = test system: tumor necrosis factor-α (TNF-α); assay: CIA model rats, serum TNF-α by enzyme-linked immunosorbent assay; type: in vivo; details: SD CIA rats; day 28; 20 and 10 mg/kg
Method: as §3, §4
(§6) After day 28 of the experiment, the blood was collected from the abdominal aorta of the rats in each group, and the serum was separated. The tumor necrosis factor-α (TNF-α) and the interleukin-1β (IL-1β) were detected by enzyme-linked immunosorbent assay, and the specific method was carried out according to the specifications of the kit. […]

interleukin-1β (IL-1β) = assay: CIA model rats, serum IL-1β by enzyme-linked immunosorbent assay; type: in vivo; details: SD CIA rats; day 28; 20 and 10 mg/kg
Method: as §3, §4, §6

CIA rats [7] = assay: CIA model rats, ankle joint histopathology (HE staining, lesion observation and scoring); type: in vivo; details: SD CIA rats; for joint lesions (histopathology) compared to model group: intragastric, once daily five days on/two days off, two weeks, formula I dihydrochloride 20 and 10 mg/kg, dexamethasone sodium phosphate 0.05 mg/kg
Method: as §3
A solution of the bovine type II collagen (CII) in acetic acid (containing 2.0 mg·mL^−1 bovine CII) and an equal volume of complete Freund's adjuvant (CFA) were completely mixed, and the mixture was fully emulsified. The emulsion was added dropwise to water without diffusing as the degree, and finally the emulsion containing 1.0 mg·mL^−1 bovine CII was prepared. 0.2 mL of the emulsion was taken and injected intradermally into the dorsal and the base of the tail at four points (two points on the dorsal and two points on the base of the tail) for the primary immunization (d0). After day 7 (d7) of primary immunization, the emulsion was injected again as described above to boost the immunization. Then the arthritis index (AI) was scored on day 14 (d14). The highest score of each rat was 16 points, and the arthritis induction was considered successful if there was at least 1 paw with AI score≥2.
The CIA rats successfully modeled were randomly divided into a drug medium-dose group, a drug low-dose group and a model group, with 10 rats in each group. The normal group and the model group were subjected to intragastric administration with 0.02 mL·g^−1 normal saline; the drug medium-dose group and the drug low-dose group were administered with the dihydrochloride salt of the compound of formula I at 20 mg/kg and 10 mg/kg, respectively, (the vehicle was normal saline). The positive drug group was subjected to intragastric administration with dexamethasone sodium phosphate with the dose of 0.05 mg/kg. The rats was administered once daily from Monday to Friday (i.e., consecutively five-day administration and then two-day interruption). The dosing period was two weeks.
After the animal blood collection was finished, ankle joints were fixed in 10% formalin. The ankle joints were subjected to decalcification by 10% acetic acid and then were subjected to routine paraffin embedding, slicing and HE staining. The slices were observed by pathology professionals, and then the damage degree of joint synovial tissue, joint bones and cartilage tissue was observed and scored for comparison.
Observation of lesions and scoring: 1. whether the joint synovial cells are proliferated or eroded (denatured, necrotic), and whether the inflammatory cells infiltrate or not; 2. whether the pannus is formed (composed of blood vessels and fibroblasts); 3. whether the bony erosion (joint bone and cartilage) or hyperplasia exists; 5. whether the joint cavity has stenosis, disappearance and other lesions. The observation indexes were classified into 3 grades according to the severity of the lesions, which were respectively recorded as: 1 point for slight, 2 points for moderate, and 3 points for severe. 0 points means substantially normal. All scores were accumulated to obtain a total score, and the average score (mean±SD) of each animal in each group was calculated, and the higher the score, the more severe the lesion.

[8] = test system: rheumatoid arthritis CIA model rats; assay: Rheumatoid arthritis CIA model, hind limb joint size monitoring (vernier caliper); type: in vivo; details: Wistar CIA rats, anlotinib 10 mg/kg; for joint swelling degree (ankle width and thickness) compared to model group: dexamethasone 0.1 mg/kg, FIGS. 2 and 3; for width of the hind limb ankle joints vs. model group / thickness of the hind limb ankle joints vs. model group: dexamethasone 0.1 mg/kg oral gavage once daily; for width of the hind limb ankle joints vs. model group: FIG. 2; for thickness of the hind limb ankle joints vs. model group: FIG. 3
Method: as §1, §2, §5
During the experiment, the width and thickness of the hind limb ankle joints of the rats in each group were measured with a vernier caliper on day 1, day 4, day 8, day 11 and day 15.

[9] = test system: rheumatoid arthritis CIA model rats; assay: Rheumatoid arthritis CIA model, hind limb joint weight determination; type: in vivo; details: day 8; Wistar CIA rats; anlotinib 10 mg/kg, dexamethasone 0.1 mg/kg oral gavage once daily; FIG. 5
Method: as §1, §2, §5
On day 8, two rats in each group were dissected, and the weight of the hind limb joints was measured. The remaining animals were subjected to normal experiments according to the grouping schedule. On day 15, the remaining animals in each group were dissected, and the weight of the hind limb joints was measured.

[10] = test system: rheumatoid arthritis CIA model rats; assay: Rheumatoid arthritis CIA model, joints photographing; type: in vivo; details: Wistar CIA rats; anlotinib 10 mg/kg, dexamethasone 0.1 mg/kg; FIGS. 6 and 7
Method: as §1, §2, §5
One rat in each group was selected, and the hind limb ankle joints thereof were photographed on day 4, day 8, day 11 and day 15.

SMILES | lesion scores of the hind limb ankle joints vs. model group ([3]; day 8) | lesion scores of the hind limb ankle joints vs. model group ([3]; day 11) | lesion scores of the hind limb ankle joints vs. model group ([3]; day 15) | weight of the rats, regain after treatment [5] | joint lesions (histopathology) compared to model group (CIA rats [7]) | joint swelling degree (ankle width and thickness) compared to model group [8] | thickness of the hind limb ankle joints vs. model group ([8]; day 8) | width of the hind limb ankle joints vs. model group ([8]; day 15) | weight of the hind limb joints vs. model group [9] | joint swelling degree on photographs compared to model group [10] | other results
COc1cc2c(Oc3ccc4[nH]c(C)cc4c3F)ccnc2cc1OCC1(N)CC1 [Anlotinib hydrochloride, 1-[[[4-(4-fluoro-2-methyl-1H-indol-5-yl)oxy-6-methoxyquinolin-7-yl]oxy]methyl]cyclopropylamine] | lower than those of the model group | lower than those of the model group | lower than those of the model group | began to regain from day 7 | improved in different degrees | improved to a certain extent | lower than that of the model group | lower than that of the model group | lower than that of the model group | improved to a certain extent | drug efficacy on the rat rheumatoid arthritis model (conclusion) [1]: significant drug efficacy; paw swelling degree compared with model group (CIA rats [2]): significantly reduced; lesion scores of the hind limb ankle joints vs. model group ([3]; day 4): lower than those of the model group; inhibition of proliferation of human rheumatoid arthritis synovial cells ([4]; 0.5, 1, 2, 5 and 10 μM compared with drug-free group at 0 μM, 24 h and 48 h after dosing): significantly inhibit the proliferation of human rheumatoid arthritis synovial cells; concentration dependence of the inhibitory effect on synovial cell proliferation ([4]; 0.5-10 μM): enhanced along with the increase of the concentration of the drug; content of TNF-α in the serum of rats compared with model group [6]: could reduce; content of IL-1β in the serum of rats compared with model group (interleukin-1β (IL-1β)): could reduce; dose dependence of joint improvement (histopathology) (CIA rats [7]; 20 mg/kg and 10 mg/kg): improved in a dose-dependent manner; joint cavity stenosis compared with model group (CIA rats [7]; 20 and 10 mg/kg): significantly improved; joint inflammatory infiltration compared with model group (CIA rats [7]; 20 and 10 mg/kg): significantly reduced; synovium hyperplasia compared with model group (CIA rats [7]; 20 and 10 mg/kg): significantly relieved; width of the hind limb ankle joints vs. model group ([8]; day 4): lower than that of the model group; thickness of the hind limb ankle joints vs. model group ([8]; day 4): lower than that of the model group; width of the hind limb ankle joints vs. model group ([8]; day 8): lower than that of the model group
C[C@@H]1C[C@H]2[C@@H]3CCC4=CC(=O)C=C[C@]4(C)[C@@]3(F)[C@@H](O)C[C@]2(C)[C@@]1(O)C(=O)COP(=O)(O)O [dexamethasone sodium phosphate, reference compound] | lower than those of the model group | lower than those of the model group | lower than those of the model group | began to regain from day 7 | significantly reduced | improved to a certain extent | lower than that of the model group | lower than that of the model group | lower than that of the model group | improved to a certain extent | weight of the rats, early stage (side effect) [5]: significant weight loss at the early stage
